Test results taken from patent US5807742A, “Neurokinin receptor cell lines” (Merrell Pharmaceuticals Inc., priority 1996, dated 1998).
Starred links: 1 amine or outer side, 2 acyl side, 3 side chain; linkers in the order of their positions; H or OH if unused. Non-standard residues stand in square brackets, D forms with d. Residues, ends and D or L forms follow the SMILES beside them. NMeF = CN[C@@H](Cc1ccccc1)C(=O)O; Suc = O=C(CCC(=O)[*:2])[*:1]

Key:
neurokinin A receptor [1] = target: T1, neurokinin A receptor (Bos taurus, UniProt P05363); assay: [125I]NKA receptor binding (saturation/Scatchard and competition) in B82 cells transfected with pSKR56S cDNA (SKLKB82#n); design: species or system bovine; settings: SKLKB82#3 cells; FIG. 4
T1 construct: expressed in transfected cells
T1 sequence (P05363 1-384): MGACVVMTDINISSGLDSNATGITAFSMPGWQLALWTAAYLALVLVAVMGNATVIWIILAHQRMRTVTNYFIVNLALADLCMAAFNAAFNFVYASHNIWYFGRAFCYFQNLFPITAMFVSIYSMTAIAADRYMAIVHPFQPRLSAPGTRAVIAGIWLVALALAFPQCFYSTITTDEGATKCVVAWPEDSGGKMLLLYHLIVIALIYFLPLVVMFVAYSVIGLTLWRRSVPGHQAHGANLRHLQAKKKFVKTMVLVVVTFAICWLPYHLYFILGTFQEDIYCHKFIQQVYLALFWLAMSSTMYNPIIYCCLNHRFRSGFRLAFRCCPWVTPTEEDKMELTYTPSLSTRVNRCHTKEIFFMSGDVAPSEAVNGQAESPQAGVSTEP
Description: (§1) The homogenate is centrifuged at 48,000×g for 10 min at 4° C.

[2] = target: T2, NKA receptor (hamster urinary bladder) (Mesocricetus auratus, UniProt P51144); assay: [125I]NKA receptor binding in hamster urinary bladder membranes (standard control); settings: FIG. 4
T2 construct: the hamster urinary bladder membranes were run as a standard control; from tissue; host or cells: hamster urinary bladder membranes
T2 sequence (P51144 1-384): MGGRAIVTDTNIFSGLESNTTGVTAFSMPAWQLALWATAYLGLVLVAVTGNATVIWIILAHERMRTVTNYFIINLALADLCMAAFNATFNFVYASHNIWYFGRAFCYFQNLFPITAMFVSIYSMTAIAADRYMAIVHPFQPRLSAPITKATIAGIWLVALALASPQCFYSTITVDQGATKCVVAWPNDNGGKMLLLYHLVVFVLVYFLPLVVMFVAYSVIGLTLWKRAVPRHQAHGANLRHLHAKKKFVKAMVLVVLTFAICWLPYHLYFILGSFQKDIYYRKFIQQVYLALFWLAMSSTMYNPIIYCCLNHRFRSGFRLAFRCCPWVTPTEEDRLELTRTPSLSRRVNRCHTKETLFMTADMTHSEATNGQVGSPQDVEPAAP
Description: as §1

neurokinin A receptor [3] = target: T1, neurokinin A receptor; assay: [3H]inositol-1-phosphate (IP1) accumulation in SKLKB82#3 cells; assay type: cell-based, bovine
Description: The culture was incubated for 22-24 hours under the same conditions. After this incubation, the cells were washed once with 1.0 ml of IMDM for ten minutes and incubated for ten minutes in 0.2 ml of incubation buffer (IMDM with 10 mM LiCl, 40 ug/ml bacitracin, 4 ug/ml leupeptin, and 4 ug/ml chymostatin). […] The reaction was terminated in 60 minutes by aspiring the media and adding 0.5 ml methanol. The cells were scraped from the wells and placed into chloroform resistant tubes. A second aliquot of 0.5 ml methanol was used to collect the remaining cells. The cell suspensions were mixed with 1.0 ml chloroform and 0.5 ml double distilled water to obtain a two phase separation. After centrifugation at 4200g for 10 minutes, 0.9 ml aliquots of the upper phase were added to 2.0 ml of distilled water and mixed. This mixture was passed through poly prep columns (Bio-Rad Laboratories, Richmond, Calif.) which consisted of 2.0 ml slurry of ten percent anion exchange resin in formate form (AG1-X8, 100-200 mesh, Bio-Rad Laboratories, Richmond, Calif.). The columns were washed three times with 5.0 ml of distilled water and two times with 5.0 ml of 5 mM sodium tetraborate/60 mM sodium formate (Baker, Phillipsburg, N.J.). […] The eluate was mixed with nine ml of Aquamix (West Chem., San Diego, Calif.) and the radioactivity was counted.

CSCC[C@H](NC(=O)[C@H](CC(C)C)NC(=O)CNC(=O)[C@H](Cc1ccccc1)N(C)C(=O)[C@H](Cc1ccccc1)NC(=O)[C@H](CC(=O)O)NC(=O)CCC(=O)O)C(N)=O [senktide] (Suc-DF[NMeF]GLM-NH2)
potency rank-order, inhibition of [125I]NKA receptor binding (KI) (neurokinin A receptor [1]): followed by Nle^10 NKA (4-10), substance P, and senktide
potency rank-order, inhibition of [125I]NKA receptor binding (KI) [2]: followed by Nle^10 NKA (4-10), substance P, and senktide
EC50 (neurokinin A receptor [3]): ~1300 µM
